Test: solubility of sirolimus in solvents / dispersion media
Type: physicochemical
Experimental: Solution 524 is a homogeneous mixture in which therapeutic substance 112 dissolves within a solvent or a solvent mixture. In one embodiment, solution 524 includes a high-capacity solvent 528 which is an organic solvent that has a high capacity to dissolve therapeutic substance 112. High capacity as utilized herein is defined as an ability to dissolve therapeutic substance 112 at concentrations greater than 500 mg of substance per milliliter of solvent. Examples of high capacity drug dissolving solvents for sirolimus and similar substances include but are not limited to tetrahydrofuran (THF), di-chloromethane (DCM), chloroform, and di-methyl-sulfoxide (DMSO). In addition to the high-capacity solvent, solution 524 may include an excipient 526 in order to assist in drug elution. In one embodiment, excipient 526 may be a surfactant such as but not limited to sorbitan fatty acid esters such as sorbitan monooleate and sorbitan monolaurate, polysorbates such as polysorbate 20, polysorbate 60, and polysorbate 80, cyclodextrins such as 2-hydroxypropyl-beta-cyclodextrin and 2,6-di-O-methyl-beta-cyclodextrin, sodium dodecyl sulfate, octyl glucoside, and low molecular weight poly(ethylene glycol)s. In another embodiment, excipient 526 may be a hydrophilic agent such as but not limited to salts such as sodium chloride and other materials such as urea, citric acid, and ascorbic acid. […]

Structure (SMILES): CO[C@H]1C[C@@H]2CC[C@@H](C)[C@@](O)(O2)C(=O)C(=O)N2CCCC[C@H]2C(=O)O[C@H]([C@H](C)C[C@@H]2CC[C@@H](O)[C@H](OC)C2)CC(=O)[C@H](C)/C=C(\C)[C@@H](O)[C@@H](OC)C(=O)[C@H](C)C[C@H](C)/C=C/C=C/C=C/1C [sirolimus]
- solubility in hexane (hexane): insoluble in hexane
- solubility in water (water): insoluble in water
